Results as given in patent US8084502B2, “Use of agmatine for protection of retinal ganglion cells” (priority 2007, dated 2011).

Assays:
Format in all cases: cell-based, rat
[1] = system: RGC-5; test: Hoechst 33342 and PI staining after hypoxia; conditions: hypoxia 48 hours; 100 μM of agmatine or 10 ng/mL of BDNF
Protocol: The RGC-5 cell line, which is a RGC line developed from post-natal Sprague-Dawley rats, was grown in modified Dulbecco's Modified Eagle's Medium (DMEM; Gibco) supplemented with 10% of heat inactivated fetal bovine serum (Gibco) and 100 U/mL of penicillin and 100 μg/mL of streptomycin (Gibco). The cells were passaged every 2 to 3 days, and the cultures incubated at 37° C. in 5% of CO2 and air. […] For all experiments, cells were used at an 80% confluence. Cultures were transferred into a closed hypoxic chamber (Form a Scientific Co.) in which oxygen level (5% of O2, 5% of CO2, 90% of N2) and temperature (37° C.) were controlled. After washing twice with deoxygenated serum-free DMEM, cells were maintained in the hypoxic chamber. Control cells were not exposed to hypoxia. Agmatine or BDNF were added to the culture medium at the start of injury as indicated. Apoptotic or necrotic cell death was characterized by the use of Hoechst 33342 and PI double staining. Cells were stained with 10 μg/mL of Hoechst 33342 and 10 μg/mL of PI at 37° C. for 30 minutes. After washing twice with phosphate buffered saline (PBS), cells were imaged with a digital camera attached to a fluorescence microscope.

[2] = system: RGC-5; test: Annexin-V assay (flow cytometry), hypoxia-induced apoptosis; conditions: agmatine 100 μM or BDNF 10 ng/ml
Protocol: The RGC-5 cell line, which is a RGC line developed from post-natal Sprague-Dawley rats, was grown in modified Dulbecco's Modified Eagle's Medium (DMEM; Gibco) supplemented with 10% of heat inactivated fetal bovine serum (Gibco) and 100 U/mL of penicillin and 100 μg/mL of streptomycin (Gibco). The cells were passaged every 2 to 3 days, and the cultures incubated at 37° C. in 5% of CO2 and air. […] For all experiments, cells were used at an 80% confluence. Cultures were transferred into a closed hypoxic chamber (Form a Scientific Co.) in which oxygen level (5% of O2, 5% of CO2, 90% of N2) and temperature (37° C.) were controlled. After washing twice with deoxygenated serum-free DMEM, cells were maintained in the hypoxic chamber. Control cells were not exposed to hypoxia. Agmatine or BDNF were added to the culture medium at the start of injury as indicated. The percentage of cells actively undergoing apoptosis was determined by flow cytometry using the Annexin V-FITC Apoptosis Detection Kit (BD Biosciences, Cat no. 556547) according to the manufacturer's instructions. Briefly, cells were harvested and resuspended in binding buffer (10^6 cells/mL). 10^5 cells were mixed with 5 μL of annexin V-FITC and 5 μL of PI. After incubating at room temperature for 15 minutes in the dark, analysis was performed by flow cytometry.

[3] = system: caspase-3; test: Caspase-3 activity (colorimetric, Ac-DEVD-pNA cleavage) after hypoxia; conditions: hypoxia 24 hours; 100 μM of agmatine or 50 μM of Z-VAD-FMK
Protocol: The RGC-5 cell line, which is a RGC line developed from post-natal Sprague-Dawley rats, was grown in modified Dulbecco's Modified Eagle's Medium (DMEM; Gibco) supplemented with 10% of heat inactivated fetal bovine serum (Gibco) and 100 U/mL of penicillin and 100 μg/mL of streptomycin (Gibco). The cells were passaged every 2 to 3 days, and the cultures incubated at 37° C. in 5% of CO2 and air. […] For all experiments, cells were used at an 80% confluence. Cultures were transferred into a closed hypoxic chamber (Form a Scientific Co.) in which oxygen level (5% of O2, 5% of CO2, 90% of N2) and temperature (37° C.) were controlled. After washing twice with deoxygenated serum-free DMEM, cells were maintained in the hypoxic chamber. Control cells were not exposed to hypoxia. Agmatine or BDNF were added to the culture medium at the start of injury as indicated. Caspase-3 activity was measured using the CaspACE™ colorimetric assay system (Promega, Cat no. G7220) according to the manufacturer's instructions. Briefly, cells were harvested and resuspended in cell lysis buffer (10^8 cells/mL). […] After incubating at 37° C. for 4 hours, absorbance was measured using a microplate reader at 405 nm. Absorbance of each sample was determined by subtraction of the mean absorbance of the blank from that of each sample.

[4] = system: JNK; test: Western blot, phospho-JNK in hypoxic RGC-5; conditions: agmatine 100 μM, BDNF 10 ng/mL
Protocol: (§1) The RGC-5 cell line, which is a RGC line developed from post-natal Sprague-Dawley rats, was grown in modified Dulbecco's Modified Eagle's Medium (DMEM; Gibco) supplemented with 10% of heat inactivated fetal bovine serum (Gibco) and 100 U/mL of penicillin and 100 μg/mL of streptomycin (Gibco). The cells were passaged every 2 to 3 days, and the cultures incubated at 37° C. in 5% of CO2 and air. […] For all experiments, cells were used at an 80% confluence. Cultures were transferred into a closed hypoxic chamber (Form a Scientific Co.) in which oxygen level (5% of O2, 5% of CO2, 90% of N2) and temperature (37° C.) were controlled. […] The protein concentrations in the resultant supernatants were measured with the Bradford reagent, and equal amounts of protein (40 μg) were boiled in Laemmli sample buffer, followed by being resolved by 10 or 15% SDS-PAGE. The proteins were transferred to polyvinylidene fluoride membranes (Immobilon; Millipore, Billerica, Mass.) and then probed overnight with antibodies against JNK, ERK p44/42, p38, NF-κB p65, phospho-JNK, phospho-ERK p44/42, phospho-p38, phospho-NF-κB, (3-actin and histone 3 as indicated (diluted 1:1000). The immunoreactive bands were detected with horseradish peroxidase-conjugated secondary antibodies and visualized by enhanced chemiluminescence.

[5] = system: p38; test: Western blot, phospho-p38 in hypoxic RGC-5; conditions: agmatine 100 μM, BDNF 10 ng/mL
Protocol: as §1

Row | Molecule | RGC loss (Hoechst-positive / PI-positive cells) [1] | proportion of apoptotic cells ([2]; hypoxia 12 hours) | proportion of apoptotic cells ([2]; hypoxia 24 hours) | hypoxia-induced caspase-3 activity [3] | hypoxia-induced expression of phospho-JNKs [4] | expression of phospho-p38 [5]
1 | N=C(N)NCCCCN [agmatine] | RGC loss was prevented | no significant difference | significant decrease in apoptotic cells | equally suppressed | significantly suppressed | had no effect
2 | BDNF: recombinant human BDNF (R&D System), well-known protective neurotrophin for RGCs, used as comparator | RGC loss was prevented | no significant difference | significant decrease in apoptotic cells |  | not | only blocked the expression of phospho-p38 at 6 hours
